# Experimental data published in patent US8487093B2, “β-lactamase inhibitors” (Merck Sharp & Dohme Corp., priority 2008, dated 2013).
# Read-outs that look alike come from different tables or passages of the source.
# What was measured:
# AmpC (P. aeruginosa) = AmpC (P. aeruginosa) (Pseudomonas aeruginosa (strain ATCC 15692 / DSM 22644 / CIP 104116 / JCM 14847 / LMG 12228 / 1C / PRS 101 / PAO1), UniProt P24735); assay: biochemical
# Method: The Class C enzyme activities were measured in the presence of the test inhibitor in spectrophotometric assay against the commercially available substrate, nitrocefin. The enzyme AmpC (P. aeruginosa.), and the substrate, were dissolved in 100 mM KH2PO4 buffer (pH 7). The buffer also contains 0.005% BSA. The test inhibitor was dissolved in DMSO and diluted 1:20 in the assay, resulting in a final concentration range of 50 μM to 0.0002 μM. In a 96-well microplate, the test inhibitor was incubated with the beta-lactamase enzyme for 40 minutes at ambient temperature, the substrate solution was added, and the incubation continued for another 40 minutes. […] The IC50 value was determined from semi logarithmic plots of enzyme inhibition versus inhibitor concentration, with a curve generated using a 4-parameter fit.
# KPC-2 (K. pneumoniae) = KPC-2 (K. pneumoniae) (Klebsiella pneumoniae, UniProt Q9F663); assay: biochemical
# [1] = Table 3, read-out: P.a. AmpC IC50
# [2] = Table 3, read-out: K.p. KPC-2 IC50
# KPC-2 (K. pneumoniae), sequence (Q9F663 25-293 limits assumed): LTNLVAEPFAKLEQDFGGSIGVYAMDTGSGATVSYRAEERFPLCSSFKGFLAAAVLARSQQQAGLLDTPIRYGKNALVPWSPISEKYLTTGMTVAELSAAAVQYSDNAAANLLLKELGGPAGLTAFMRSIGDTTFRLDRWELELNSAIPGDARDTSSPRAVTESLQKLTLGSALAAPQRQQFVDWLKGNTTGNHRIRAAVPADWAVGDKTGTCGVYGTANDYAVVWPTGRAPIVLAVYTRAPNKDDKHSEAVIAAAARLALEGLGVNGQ
# AmpC (P. aeruginosa), sequence (P24735 27-397): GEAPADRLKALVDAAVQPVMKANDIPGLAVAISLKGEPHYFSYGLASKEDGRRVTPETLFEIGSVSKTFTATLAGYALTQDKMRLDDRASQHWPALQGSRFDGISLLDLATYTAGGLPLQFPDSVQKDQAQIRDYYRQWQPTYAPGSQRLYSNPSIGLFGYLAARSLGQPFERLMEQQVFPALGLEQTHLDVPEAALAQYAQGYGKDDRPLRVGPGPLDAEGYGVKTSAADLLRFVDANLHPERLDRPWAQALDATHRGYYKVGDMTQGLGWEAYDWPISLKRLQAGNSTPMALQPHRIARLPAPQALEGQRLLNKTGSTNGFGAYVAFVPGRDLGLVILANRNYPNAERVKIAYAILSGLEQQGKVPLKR
Structure (SMILES),IC50 (AmpC (P. aeruginosa); [1]),IC50 (KPC-2 (K. pneumoniae); [2]),"IC50 (KPC-2 (K. pneumoniae); K.p. KPC-2 IC50, Table 3)",IC50 (AmpC (P. aeruginosa))
"O=C(NC1CCCNC1)[C@@H]1CC[C@@H]2CN1C(=O)N2OS(=O)(=O)O (single isomer, unassigned) [Example 19b]",480 nM,240 nM,,
"O=C(NC1CCNC1)[C@@H]1CC[C@@H]2CN1C(=O)N2OS(=O)(=O)O (stereo in doubt) [Example 14, (2S,5R)-7-oxo-N-[(3R)-pyrrolidin-3-yl]-6-(sulfooxy)-1,6-diazabicyclo[3.2.1]octane-2-carboxamide]",110 nM,,355 nM,
"O=C(N[C@H]1CCNC[C@H]1F)[C@@H]1CC[C@@H]2CN1C(=O)N2OS(=O)(=O)O [Example 15, (2S,5R)—N-[(3R,4S)-3-Fluoropiperidin-4-yl]-7-oxo-6-(sulfooxy)-1,6-diazabicyclo[3.2.1]octane-2-carboxamide]",,130 nM,,49 nM
"O=C(Nc1ccc2c(c1)CCNC2)[C@@H]1CC[C@@H]2CN1C(=O)N2OS(=O)(=O)O [Example 16, (2S,5R)-7-Oxo-6-(sulfooxy)-N-(1,2,3,4-tetrahydroisoquinolin-6-yl)-1,6-diazabicyclo[3.2.1]octane-2-carboxamide]",,19 nM,,14 nM
"O=C(Nc1ccc(C2CCNCC2)cn1)[C@@H]1CC[C@@H]2CN1C(=O)N2OS(=O)(=O)O [Example 17, (2S,5R)-7-Oxo-N-(5-piperidin-4-ylpyridin-2-yl)-6-(sulfooxy)-1,6-diazabicyclo[3.2.1]octane-2-carboxamide]",6 nM,,,
"O=C(OCC1CCNCC1)[C@@H]1CC[C@@H]2CN1C(=O)N2OS(=O)(=O)O [Example 18, Piperidin-4-ylmethyl(2S,5R)-7-oxo-6-(sulfooxy)-1,6-diazabicyclo[3.2.1]octane-2-carboxylate]",180 nM,10 nM,,
O=C(NC1CCCNC1)[C@@H]1CC[C@@H]2CN1C(=O)N2OS(=O)(=O)O (stereo partly drawn) [Example 19a],64 nM,480 nM,,
O=C(NC1CNC1)[C@@H]1CC[C@@H]2CN1C(=O)N2OS(=O)(=O)O [Example 20],1000 nM,17 nM,,
O=C(N[C@@H]1CCNC1)[C@@H]1CC[C@@H]2CN1C(=O)N2OS(=O)(=O)O [Example 21],29100 nM,,4300 nM,
O=C(N[C@@H]1CCCNCC1)[C@@H]1CC[C@@H]2CN1C(=O)N2OS(=O)(=O)O [Example 22],,225 nM,,520 nM
CN1CCC(NC(=O)[C@@H]2CC[C@@H]3CN2C(=O)N3OS(=O)(=O)O)CC1 [Example 23],500 nM,240 nM,,
O=C(N[C@H]1CCNC[C@@H]1F)[C@@H]1CC[C@@H]2CN1C(=O)N2OS(=O)(=O)O [Example 24],,90 nM,,110 nM
O=C(N[C@@H]1CCNC[C@@H]1F)[C@@H]1CC[C@@H]2CN1C(=O)N2OS(=O)(=O)O [Example 25],,270 nM,,20 nM
CO[C@H]1CNCC[C@H]1NC(=O)[C@@H]1CC[C@@H]2CN1C(=O)N2OS(=O)(=O)O [Example 26],,,290 nM,120 nM
O=C(NC1CCS(=O)(=O)CC1)[C@@H]1CC[C@@H]2CN1C(=O)N2OS(=O)(=O)O [Example 27],9.5 nM,150 nM,,
N[C@@H]1CNC[C@H]1NC(=O)[C@@H]1CC[C@@H]2CN1C(=O)N2OS(=O)(=O)O [Example 28],740 nM,660 nM,,
O=C(N[C@@H]1CNC[C@H]1O)[C@@H]1CC[C@@H]2CN1C(=O)N2OS(=O)(=O)O [Example 29],2500 nM,250 nM,,
O=C(N[C@@H]1CNC[C@@H]1O)[C@@H]1CC[C@@H]2CN1C(=O)N2OS(=O)(=O)O [Example 30],2250 nM,520 nM,,
O=C(N[C@@H]1CNC[C@@H]1F)[C@@H]1CC[C@@H]2CN1C(=O)N2OS(=O)(=O)O [Example 31],,,190 nM,150 nM
O=C(N[C@H]1CNC[C@H]1F)[C@@H]1CC[C@@H]2CN1C(=O)N2OS(=O)(=O)O [Example 32],,,710 nM,19 nM
